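Method: 48-hour compound exposure of cells in 96-well plates, five concentrations, linear interpolation of endpoints. At the GI50, growth is halved. TGI: concentration producing complete growth inhibition.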
Legend:
Experiment in all cases: DTP human tumour cell line panel, 48 h
[1] = system: 786-0 renal
[2] = system: A498 renal
[3] = system: A549 NSCLC
[4] = system: ACHN renal
[5] = system: BT-549 breast
[6] = system: CAKI-1 renal
[7] = system: CCRF-CEM leukemia
[8] = system: COLO 205 colon
[9] = system: DU-145 prostate
[10] = system: EKVX NSCLC
[11] = system: HCC-2998 colon
[12] = system: HCT-116 colon
[13] = system: HCT-15 colon
[14] = system: HL-60(TB) leukemia
[15] = system: HOP-62 NSCLC
[16] = system: HOP-92 NSCLC
[17] = system: HS 578T breast
[18] = system: HT29 colon
[19] = system: IGROV1 ovarian
[20] = system: K-562 leukemia
[21] = system: KM12 colon
[22] = system: LOX IMVI melanoma
[23] = system: M14 melanoma
[24] = system: MALME-3M melanoma
[25] = system: MCF7 breast
[26] = system: MDA-MB-231 breast
[27] = system: MDA-MB-435
[28] = system: MDA-MB-468 breast
[29] = system: MOLT-4 leukemia
[30] = system: NCI-H226 lung
[31] = system: NCI-H23 lung
[32] = system: NCI-H460 lung
[33] = system: NCI-H522 lung
[34] = system: NCI/ADR-RES ovarian
[35] = system: OVCAR-3 ovarian
[36] = system: OVCAR-4 ovarian
[37] = system: OVCAR-8 ovarian
[38] = system: PC-3 prostate
[39] = system: RPMI-8226 leukemia
[40] = system: SF-268 CNS
[41] = system: SF-295 CNS
[42] = system: SF-539 CNS
[43] = system: SK-MEL-2 melanoma
[44] = system: SK-MEL-5 melanoma
[45] = system: SK-OV-3 ovarian
[46] = system: SN12C renal
[47] = system: SNB-19 CNS
[48] = system: SNB-75 CNS
[49] = system: SR leukemia
[50] = system: SW-620 colon
[51] = system: T-47D breast
[52] = system: TK-10 renal
[53] = system: U251 CNS
[54] = system: UACC-257 melanoma
[55] = system: UACC-62 melanoma
[56] = system: UO-31 renal

O=C1NC(=O)c2c1c1c3cc(Br)ccc3[nH]c1c1oc3ccc(F)cc3c21 was tested, and the GI50 [1] was 3.62 µM, the TGI [1] was 21.9 µM and the GI50 [2] was 2.02 µM. The TGI [2] was 3.54 µM, the GI50 [3] was 6.84 µM and the TGI [3] was > 100 µM. For the same compound, the GI50 [4] was 1.97 µM, the TGI [4] was 5.3 µM and the GI50 [5] was 9.86 µM. The TGI [5] was > 100 µM, the GI50 [6] was 2.25 µM and the TGI [6] was > 100 µM. The GI50 [7] was 0.2 µM, the TGI [7] was > 100 µM and the GI50 [8] was 2.96 µM. The TGI [8] was > 100 µM, the GI50 [9] was 3.21 µM and the TGI [9] was > 100 µM. For the same compound, the GI50 [10] was 3.99 µM, the TGI [10] was > 100 µM and the GI50 [11] was 3.39 µM. The TGI [11] was 45.6 µM, the GI50 [12] was 3 µM and the TGI [12] was > 100 µM. For the same compound, the GI50 [13] was 2.93 µM, the TGI [13] was > 100 µM and the GI50 [14] was > 100 µM. The TGI [14] was > 100 µM, the GI50 [15] was 1.58 µM and the TGI [15] was 3.52 µM. The GI50 [16] was 1.59 µM, the TGI [16] was 4.52 µM and the GI50 [17] was 1.91 µM. For the same compound, the TGI [17] was 4.66 µM, the GI50 [18] was 3.59 µM and the TGI [18] was > 100 µM. For the same compound, the GI50 [19] was 1.03 µM, the TGI [19] was 3.15 µM and the GI50 [20] was 3.66 µM. For the same compound, the TGI [20] was > 100 µM, the GI50 [21] was 2.87 µM and the TGI [21] was > 100 µM. For the same compound, the GI50 [22] was 1.43 µM, the TGI [22] was 2.77 µM and the GI50 [23] was 3.16 µM. The TGI [23] was > 100 µM, the GI50 [24] was 1.42 µM and the TGI [24] was 4.01 µM. It also gave a GI50 [25] of 0.877 µM, a TGI [25] of 3.32 µM and a GI50 [26] of 1.57 µM. The TGI [26] was 3.58 µM, the GI50 [27] was 4.24 µM and the TGI [27] was > 100 µM. The GI50 [28] was 1.35 µM, the TGI [28] was 3.06 µM and the GI50 [29] was 0.533 µM. The TGI [29] was > 100 µM, the GI50 [30] was 1.1 µM and the TGI [30] was 2.6 µM. The GI50 [31] was 1.75 µM, the TGI [31] was 4.06 µM and the GI50 [32] was 1.46 µM. For the same compound, the TGI [32] was 3.32 µM, the GI50 [33] was 1.42 µM and the TGI [33] was 3.31 µM. For the same compound, the GI50 [34] was 3.43 µM, the TGI [34] was > 100 µM and the GI50 [35] was 2.14 µM. The TGI [35] was 5.3 µM, the GI50 [36] was 1.55 µM and the TGI [36] was 3.33 µM. The GI50 [37] was 1.67 µM, the TGI [37] was 4.77 µM and the GI50 [38] was 1.69 µM. For the same compound, the TGI [38] was 4.99 µM, the GI50 [39] was 3.71 µM and the TGI [39] was > 100 µM. It also gave a GI50 [40] of 2.61 µM, a TGI [40] of 7.8 µM and a GI50 [41] of 5.95 µM. The TGI [41] was > 100 µM, the GI50 [42] was 1.79 µM and the TGI [42] was 3.53 µM. For the same compound, the GI50 [43] was 2.21 µM, the TGI [43] was 6.17 µM and the GI50 [44] was 3.72 µM. The TGI [44] was > 100 µM, the GI50 [45] was 2.04 µM and the TGI [45] was 5.37 µM. The GI50 [46] was 1.71 µM, the TGI [46] was 3.69 µM and the GI50 [47] was 2.17 µM. The TGI [47] was 6.04 µM, the GI50 [48] was 2.09 µM and the TGI [48] was 7.99 µM. The GI50 [49] was 4.47 µM, the TGI [49] was > 100 µM and the GI50 [50] was 2.39 µM. The TGI [50] was > 100 µM, the GI50 [51] was 1.24 µM and the TGI [51] was 4.51 µM. The GI50 [52] was 3.47 µM, the TGI [52] was > 100 µM and the GI50 [53] was 1.73 µM. For the same compound, the TGI [53] was 3.87 µM, the GI50 [54] was 6.09 µM and the TGI [54] was > 100 µM. The GI50 [55] was 1.39 µM, the TGI [55] was 4.88 µM and the GI50 [56] was 0.358 µM. The TGI [56] was > 100 µM.
